Data from patent US8852657B2, “Chromones as therapeutic agents” (Unigen, Inc., priority 2007, dated 2014).
“Also recorded” adds a separate entry of the source.

Legend:
[1] = tested on: adiponectin secreted into the media by differentiated 3T3-L1 cells; assay: Adiponectin ELISA assay, improved protocol (differentiated 2 days, treated 48 hours); type: cell-based, mouse; conditions: for activity in the adiponectin assay: sub-fractions and isolated compounds of P0017-OE
Description: (§1) 3T3-L1, an embryonic mouse cell line (American Type Culture Collection, Manassas, Va.), is a sub-strain of the 3T3 swiss albino line that can differentiate from a pre-adipose to adipose state. These preadipocytes were cultured in Dulbecco's modified Eagle medium (DMEM) containing 10% fetal bovine serum (FBS) (Mediatech, Inc., Herndon, Va.).
(§2) To establish a differentiation protocol, the 3T3-L1 cells were plated into 96-well plates and cultured overnight to confluence. The confluent cells were induced to differentiate 2 days post-confluence. The induction was conducted with 0.5 mM isobutylmethylzanthine, 1.0 μM dexamethasone and 1.7 μM insulin (Sigma-Aldrich, St. Louis, Mo.) supplemented into culture media. On the 7th day the adipocytes were treated with the control compounds or plant extracts for 24 hours. All controls and plant extracts were solublized in DMSO and added to the culture media at 1% of the total volume. Cell media was collected to measure the levels of adiponectin and assayed by enzyme-linked immunosorbent assay (ELISA) according to the manufacturer's protocol (R&D Systems, Minneapolis, Minn.). The assay sensitivity ranged from 31.25-2000 pg/mL. The positive controls were tested in a range from 0.01 to 300 μM (FIG. 1).
Due to the poor signal to background ratio of the assay (less than 2), the previously mentioned protocol needed to be improved. Adipocytes were plated and differentiated as previously described. The cells were differentiated in the differentiation medium for 48 hours either with or without the addition of insulin. Then the cells were treated with the control compounds or plant extracts for only 48 hours post-differentiation. All other parameters were the same as previously mentioned. The indomethacin (FIG. 1) and troglitazone (data not shown) controls were tested at 10-100 μM and 3-30 μM respectively. The greatest increase in the level of adiponectin was 52-fold above the signal of baseline which was achieved by indomethacin treatment at 100 μM, while the lowest increase was 7-fold with indomethacin at 10 μM (FIG. 1B).

[2] = tested on: human intestinal bacteria; conditions: cited from earlier work
[3] = tested on: C57BL/6J mice fed high fat diet; assay: Plasma insulin level (ELISA), high-fat diet induced model; type: in vivo, mouse; conditions: day 14 of treatment after 8 weeks high-fat diet; P<0.05; GW1929 5 mg/kg, UP394 and UP396 100 mg/kg
Excerpt: A high-fat diet induced animal model was developed and used for evaluation of potential therapeutic effects of chromone extracts. The C57BL/6J is a clinically relevant animal model that can be used in studies on metabolic disorders, pathophysiology of impaired glucose tolerance and for development of novel therapeutic agents (Ahren et al. (2004) Diabetes 53 (Supplement 3):S215-S219; Laakso et al. (2004) Diabetes Care 27:2253-2259; Kahn et al. (2004) Diabetes 53:3274-3285; Scheurink et al. (1998) European J Endo. 139:461-467; Yuan et al. (2002) Diabetes 51:1851-1858; Reitman et al. (2005) Endocrinology 145:3258-3264; Vlassara et al. (2005) Diabetes 54:2314-2319; Cawthome et al. (2002) Molecular and Cellular Proteomics 1:509-516). Methodology of model induction was first explained by Surwit et al. in 1988 (Diabetes, 37:1163-1167). In brief, impaired glucose tolerance and metabolic disorder like symptoms were inflicted successfully in C57BL/6J mice when fed with high fat diets for 8 weeks. Male C57BL/6J mice were purchased from Jackson Laboratories (Bar Harbor, Me.) at age of 6 weeks. One week after acclimation period, animals were divided into groups (n=5 or 6) and provided with high fat (45% kcal) rodent pellet (Research diets, Inc., New Brunswick, N.J.) and water ad libitum for 12 weeks except at times of glucose and insulin tolerance tests at which feed was withheld for three hours. Animals were maintained in a temperature controlled room (22.2° C.) on a 12 hour light-dark cycle. Blood glucose, cholesterol, and triglyceride were monitored every week for 12 weeks as described previously. Body weight measurement was taken once a week for 12 weeks.
Once induction of the metabolic disorders was confirmed by weekly monitoring of selected parameters (glucose, triglyceride and cholesterol) i.e. on the 8th week, daily intraperitoneal treatment was initiated and maintained for 4 weeks. […]
The plasma insulin levels were measured with an ELISA kit for insulin (Crystal Chem—Chicago, Ill.). […]

[4] = tested on: tyrosinase; conditions: in vitro; Yagi et al. (1987); cited from earlier work
[5] = tested on: adiponectin secreted into the media by differentiated 3T3-L1 cells; assay: Adiponectin ELISA assay, previously published protocol (differentiated 7 days, treated 24 hours); type: cell-based, mouse; conditions: for fold increase in adiponectin level: 1 μM, greatest fold increase, differentiated 7 days, treated 24 hours
Description: as §1, §2

[6] = tested on: C57BL/6J mice fed high fat diet; assay: Intraperitoneal glucose tolerance test, high-fat diet induced model (UP394/UP396); type: in vivo, mouse; conditions: day 18; times 60, 90 and 120 minutes; p<0.05; GW1929 5 mg/kg, UP396 100 mg/kg intraperitoneally
Excerpt: A high-fat diet induced animal model was developed and used for evaluation of potential therapeutic effects of chromone extracts. The C57BL/6J is a clinically relevant animal model that can be used in studies on metabolic disorders, pathophysiology of impaired glucose tolerance and for development of novel therapeutic agents (Ahren et al. (2004) Diabetes 53 (Supplement 3):S215-S219; Laakso et al. (2004) Diabetes Care 27:2253-2259; Kahn et al. (2004) Diabetes 53:3274-3285; Scheurink et al. (1998) European J Endo. 139:461-467; Yuan et al. (2002) Diabetes 51:1851-1858; Reitman et al. (2005) Endocrinology 145:3258-3264; Vlassara et al. (2005) Diabetes 54:2314-2319; Cawthome et al. (2002) Molecular and Cellular Proteomics 1:509-516). Methodology of model induction was first explained by Surwit et al. in 1988 (Diabetes, 37:1163-1167). […] Blood glucose, cholesterol, and triglyceride were monitored every week for 12 weeks as described previously. […]
An intraperitoneal glucose tolerance test was conducted using the C57BL/6J mice as described in Example 12 at a dose of 2 g/kg on day 18 of treatment with intraperitoneal administration of GW1929 (5 mg/kg), UP394 (100 mg/kg), UP396 (100 mg/kg) and vehicle. […] Blood glucose levels were measured at time 0, 30, 60, 90, and 120 minutes. […]

Compound | fold increase in adiponectin level ([1]; 30 μM, treated 48 hours) | activity in the adiponectin assay [1] | plasma insulin levels compared to vehicle [3] | fold increase in adiponectin level [5] | other results
CC(=O)Cc1cc(=O)c2c(C)cc(O)c([C@@H]3O[C@H](CO)[C@@H](O)[C@H](O)[C@H]3O)c2o1 [UP394, aloesin] | 2 fold | active in increasing adiponectin production | decreased the insulin levels significantly; also recorded: Significant decreases in plasma insulin levels | – | activity in the adiponectin assay ([1]; listed as P0017-AC1): exhibited activity in the adiponectin assay; cleavage of the c-glucosyl bond [2]: can be cleaved; inhibition of tyrosinase activity [4]: strong inhibitor
Cc1cc(O)c(C2OC(O)C(O)C(O)C2CO)c2oc(CC(C)O)cc(=O)c12 (stereo not drawn) [UP396, aloesinol] | 3.2 fold | – | – | – | –
COc1ccc2c(c1)c(CC(=O)O)c(C)n2C(=O)c1ccc(Cl)cc1 [indomethacin] | – | – | – | 1.6 fold | fold increase in adiponectin level ([1]; 10 μM, differentiated 2 days, treated 2 days): 7 fold; fold increase in adiponectin level ([1]; 100 μM, differentiated 2 days, treated 2 days): 52 fold; signal to background ratio of the assay ([5]; best ratio, indomethacin at concentrations between 0.1-300 μM, published experimental conditions): 1.6
Cc1c(C)c2c(c(C)c1O)CCC(C)(COc1ccc(CC3SC(=O)NC3=O)cc1)O2 (stereo not drawn) [troglitazone] | 49 fold | – | – | 1.7 fold | fold increase in adiponectin level ([1]; 3 μM, treated 48 hours): 24 fold
aloesinol [UP396] | – | active in increasing adiponectin production | decreased the insulin levels significantly; also recorded: Significant decreases in plasma insulin levels | – | activity in the adiponectin assay ([1]; listed as P0017-AC2): exhibited activity in the adiponectin assay; glucose utilization in intraperitoneal glucose tolerance test compared to vehicle [6]: Significant glucose utilization
